From paper PMC9049325 (ChemMedChem, 2020)
Like-named read-outs stand apart in the source and are kept apart here.

Key:
[1] = target: p97 D649A/T688A double mutant; assay: p97 ATPase activity assay, D649A/T688A double mutant; assay type: biochemical; settings: protein concentration and reaction time each increased 4-fold
[2] = system: CB-5083 resistant p97 mutants; assay: p97 ATPase activity assay, panel of CB-5083 resistant mutants; assay type: biochemical; settings: among CB-5083 resistant mutants
seven cancer lines = assay: Cancer cell proliferation assay; assay type: cell-based; settings: for IC50: read-out: IC50 for inhibition of proliferation
[3] = system: CB-R-HCT116 cells (p97 D649A/T688A); assay: Cell proliferation, CB-5083 resistant HCT116 versus parental HCT116; assay type: cell-based; settings: for sensitivity of CB-R-HCT116 compared with parental HCT116: cell proliferation
CB-R-HCT116 cells = assay: Western blot of UPR / p97 inhibition biomarkers, CB-R-HCT116; assay type: cell-based; settings: CB-R-HCT116, 10 μM, 6 hours
HCT116 cells = settings: HCT116, 2.5 μM, 6 hours
WT p97 [4] = target: T1, WT p97 (Homo sapiens, UniProt P55072); assay: p97 ATPase activity assay, WT; assay type: biochemical
T1 sequence (P55072 whole entry): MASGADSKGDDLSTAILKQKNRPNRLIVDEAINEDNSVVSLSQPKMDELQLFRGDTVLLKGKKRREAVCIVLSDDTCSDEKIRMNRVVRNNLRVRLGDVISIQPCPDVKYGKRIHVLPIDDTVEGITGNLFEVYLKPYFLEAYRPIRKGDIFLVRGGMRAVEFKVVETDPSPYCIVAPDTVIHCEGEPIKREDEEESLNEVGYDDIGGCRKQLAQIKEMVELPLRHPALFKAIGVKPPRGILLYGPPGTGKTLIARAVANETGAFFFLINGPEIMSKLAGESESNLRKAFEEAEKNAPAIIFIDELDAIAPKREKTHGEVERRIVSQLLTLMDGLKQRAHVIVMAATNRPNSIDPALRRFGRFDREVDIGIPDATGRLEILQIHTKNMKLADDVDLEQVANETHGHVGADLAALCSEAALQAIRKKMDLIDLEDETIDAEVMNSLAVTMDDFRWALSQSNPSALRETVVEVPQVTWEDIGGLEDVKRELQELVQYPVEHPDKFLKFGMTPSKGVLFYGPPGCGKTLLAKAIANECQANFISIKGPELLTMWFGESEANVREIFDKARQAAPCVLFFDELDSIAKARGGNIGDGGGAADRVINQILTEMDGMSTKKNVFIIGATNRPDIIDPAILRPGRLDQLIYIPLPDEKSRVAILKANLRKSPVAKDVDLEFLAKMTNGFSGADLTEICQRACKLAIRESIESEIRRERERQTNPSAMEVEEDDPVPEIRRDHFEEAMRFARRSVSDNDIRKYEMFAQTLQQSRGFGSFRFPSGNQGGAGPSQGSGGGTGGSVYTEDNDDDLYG

p97 T688A mutant = p97 T688A mutant (Homo sapiens, UniProt P55072, T688A); assay: p97 ATPase activity assay, T688A mutant; assay type: biochemical
Chain of p97 T688A mutant (P55072 whole entry T688A): as the sequence (P55072 whole entry) above, with T688A counted along it

WT p97 [5] = target: T1, WT p97; assay: Thermal shift assay; assay type: binding; settings: TSA, WT compared with N660K and T688A
p97 ATPase = p97 ATPase (Homo sapiens, UniProt P55072); assay: Steady-state kinetic analysis of p97 ATPase inhibition; assay type: biochemical; settings: ten ATP concentrations, 2 or 3 inhibitor concentrations
Chain of p97 ATPase (P55072 whole entry): as the sequence (P55072 whole entry) above

A549 cells [6] = system: A549 cells
A549 cells [7] = assay: Intracellular compound concentration determination

**Q.** For `Cc1cc2c(C(N)=O)cccc2n1-c1nc2c(c(NCc3ccccc3)n1)COCC2` [CB-5083], which “IC50 increase toward D649A/T688A vs WT p97” value [1] is on record?
**A.** about 400 fold

**Q.** What about the “mutants most resistant to inhibition” value [2] of the same compound?
**A.** N660K and T688A are the most resistant

**Q.** What about the IC50 (seven cancer lines) of the same compound?
**A.** 500 to 4000 nM

**Q.** And the inhibition of proliferation ([3]; CB-R-HCT116, 10.5 μM)?
**A.** only slightly inhibited

**Q.** And the “sensitivity of CB-R-HCT116 compared with parental HCT116” value [3]?
**A.** unaffected

**Q.** And the “changes in biomarkers (K48 ubiquitination, ATF4, CHOP, p62)” value (CB-R-HCT116 cells)?
**A.** no effects on these biomarkers

**Q.** What about the “changes in biomarkers (K48 ubiquitination, ATF4, CHOP, p62)” value (HCT116 cells) of the same compound?
**A.** accumulation of K48 ubiquitination, ATF4 and CHOP

**Q.** For `CC(C)N1CCN(CCNC2CCN(c3cccc(-c4cc5cc(F)ccc5[nH]4)c3)CC2)CC1` [UPCDC-30245], which “fold less potent than NMS-873 in the ATPase activity assay” value (WT p97 [4]; WT p97) is on record?
**A.** 12 fold

**Q.** And the IC50 (WT p97 [4]; read-out: IC50 toward WT p97 ATPase activity, biochemical assay)?
**A.** 300 nM

**Q.** What about the “fold resistance of T688A (IC50 increase vs WT)” value (p97 T688A mutant) of the same compound?
**A.** 3 fold

**Q.** What about the “IC50 increase toward D649A/T688A vs WT p97” value [1] of the same compound?
**A.** 2 fold

**Q.** What about the “effect on Tm of WT, N660K and T688A p97” value (WT p97 [5]) of the same compound?
**A.** did not stabilize WT or either mutant p97 protein

**Q.** What about the mechanism of inhibition (p97 ATPase) of the same compound?
**A.** noncompetitive inhibition

**Q.** And the “potency at inhibiting cell proliferation compared with NMS-873” value (seven cancer lines; HT29 cells)?
**A.** more potent

**Q.** And the “sensitivity of CB-R-HCT116 compared with parental HCT116” value [3]?
**A.** similarly sensitive

**Q.** What about the intracellular concentration reached (A549 cells [6]) of the same compound?
**A.** millimolar

**Q.** What about the “time to steady-state intracellular concentration” value (A549 cells [6]) of the same compound?
**A.** 3 h

**Q.** And the “intracellular concentration relative to NMS-873” value (A549 cells [7]; 5 μM)?
**A.** 12 fold

**Q.** `c1ccc(CNc2nc(N3CCOc4ccccc43)nc3c2CCCC3)cc1` [ML241] was tested. Which “mutants most resistant to inhibition” value [2] did it give?
**A.** N660K and T688A are the most resistant

**Q.** With `Cc1cc(OCc2nnc(SC3CCCC3)n2-c2cccnc2)ccc1-c1ccc(S(C)(=O)=O)cc1` [NMS-873] as the compound, how does the mechanism of inhibition (p97 ATPase) read?
**A.** noncompetitive inhibitor

**Q.** What about the IC50 (seven cancer lines) of the same compound?
**A.** 500 to 4000 nM

**Q.** What about the “sensitivity of CB-R-HCT116 compared with parental HCT116” value [3] of the same compound?
**A.** slightly more sensitive

**Q.** What about the intracellular concentration reached (A549 cells [7]) of the same compound?
**A.** millimolar

**Q.** For `COc1cccc2c(NCc3ccccc3)nc(-n3c(N)nc4ccccc43)nc12` [ML240], which “mutants most resistant to inhibition” value [2] is on record?
**A.** N660K and T688A are the most resistant
